What was measured:
focal adhesion (FA) = assay: FA disassembly after nocodazole release (Vinculin staining); format: cell-based
Method: (§1) Autophagy or endosomal trafficking contributes to the migration and invasion of tumor cells by changing the microtubule dynamics, or presentation of surface proteins, or secretion of extracellular matrix (ECM) proteins. Also, focal adhesion (FA) dynamics is a key process for cell migration. In this regard, the effects of vacuolin-1 on the spatio-temporal regulation of FA dynamics were assessed. Phospho-Y397 FAK immunoblot was used to assess the effects of vacuolin-1 on phosphorylation and dephosphorylation dynamics of FAK. Cells were also treated with nocodazole, followed by nocodazole removal and vacuolin-1 incubation, stained with antibodies against Vinculin and Phalloidiin for FA and stress fiber, respectively.
With reference to FIGS. 1E and 1F, cells were treated with nocodazole so as to depolymerize microtubules for inducing and stabilizing FA formation, showing by the puncta staining pattern of Vinculin (green colour), whereas removal of nocodazole led to microtubule regrowth resulting in decreasing the number of FA in a time-dependent manner until the reformation of FAs. […] Focal adhesion kinase (FAK) phosphorylation and dephosphorylation on Y397 is another readout of FA dynamics.

hLCSCs [1] = assay: matrigel invasion assay; format: cell-based, human
Method: (§2) HeLa cells, A549 cells, CNE-1 cells and human liver cancer stem cells (hLCSCs) were incubated and treated with vacuolin-1 at different concentrations, namely 2 μM, 5 μM and 10 μM.

[2] = acute toxicity via oral route; format: in vivo; conditions: single dose 250 mg/kg oral
Method: In particular, vacuolin-1 was administered at a single dose of 250 mg/kg to young adult male and female mice via oral route, and DMSO-containing PBS was administered to another set of male and female mice via oral route as a control group. […] During the 2 weeks, the body weight was also measured. After the 2 weeks, organs were excised for histopathology evaluation.
Referring to FIG. 8B, all tissues or organs in vacuolin-1 treated mice were normal in histological point of view as compared to control groups.

[3] = test system: mouse breast carcinoma 4TO7; assay: metastasis of tail vein injected 4TO7 cells; format: in vivo, normal BALBc mice; conditions: 2.5 mg/kg daily IP; BALBc mice
Method: To exclude the effects of immunodeficiency (nude mice) on the drug effects, another metastasis tumor model was established by tail vein injection of mouse breast carcinoma 4TO7 into normal BALBc mice followed by daily IP injections of vacuolin-1 (2.5 mg/kg) 24 hour later, as illustrated in FIG. 5A.

[4] = test system: Fluc-mCherry-expressing 4TO7 cells; assay: metastasis of tail vein injected Fluc-mCherry 4TO7 cells; format: in vivo; conditions: tail vein injection; 2.5 mg/kg IP; 2 weeks; normal mice
Method: Since 4TO7 cells are more metastatic than LCSCs, Fluc-mCherry-expressing 4TO7 cells were injected into normal mice via tail vein injection followed by IP injections of vacuolin-1 (2.5 mg/kg) 24 hour later, as illustrated in FIG. 6A. The mice were imaged by the Cri Maestro 2 weekly to assess the tumor progression. Mice were sacrificed after 2 weeks, and the number of tumor colonies in lung was counted.

sub-chronic toxicity = format: in vivo; conditions: 5 mg/kg daily intraperitoneal; 3 months; mice
Method: As for the sub-chronic toxicity of vacuolin-1, 5 mg/kg vacuolin-1 was administered daily to young adult male and female mice via intraperitoneal route for 3 months, and DMSO-containing PBS was administered to another set of male and female mice as a control group. The body weight of the mice was determined every week. […] After the 3 months, organs were excised for histopathology evaluation.

cancer cells = assay: cytotoxicity in vitro; format: cell-based
CNE-1 cells = assay: trans-well migration assay; format: cell-based; conditions: 2 μM, 5 μM and 10 μM
Method: as §2

A549 cells = assay: trans-well migration assay; format: cell-based; conditions: 2 μM, 5 μM and 10 μM
Method: as §2

HeLa cells = assay: trans-well migration assay; format: cell-based; conditions: 2 μM, 5 μM and 10 μM
Method: as §2

[5] = test system: human liver cancer stem cells (hLCSCs); assay: trans-well migration assay; format: cell-based; conditions: 2 μM, 5 μM and 10 μM
Method: as §2

tfLC3B-expressing LCSCs = assay: metastasis of tail vein injected LCSCs; format: in vivo; conditions: 2.5 mg/kg IP 3 times per week; 8 weeks; nude mice
Method: With reference to FIG. 3A, briefly, 5×10^5 tfLC3B-expressing LCSCs were injected via tail vein into nude mice. 24 hours after the tail vein injection, intraperitoneal (IP) injection of vacuolin-1 (2.5 mg/kg) were conducted 3 times per week. After 8 weeks, all mice were sacrificed. Lungs were excised, and fixed in the 4% paraformaldehyde in PBS. Metastatic nodules were counted in the excised lungs and hemotoxylin/eosin (H&E) were then performed.

[6] = test system: Focal adhesion kinase (FAK); assay: phospho-Y397 FAK immunoblot; format: cell-based; conditions: phosphor-Y397 FAK immunoblot
Method: as §1
Consistently, with reference to FIG. 1D, vacuolin-1 treatment of cells abolished phosphorylation and dephosphorylation dynamics of FAK as assessed by the phosphor-Y397 FAK immunoblot analysis.

[7] = test system: human breast cancer cells CA1a; assay: metastasis of tail vein injected CA1a cells; format: in vivo; conditions: 2.5 mg/kg IP 3 times per week; 8 weeks; nude mice
Method: Similarly, the anti-metastasis effects of vacuolin-1 in human breast cancer cells CA1a in xenograft mouse models were evaluated. With reference to FIG. 4A, briefly, 5×10^5 Fluc-mCherry-expressing CA1a cells were injected by tail vein into nude mice. 24 hours after the tail vein injection, IP injections of vacuolin-1 (2.5 mg/kg) and DMSO-containing PBS were conducted 3 times per week. The mice where imaged by the Cri Maestro 2 weekly to assess the tumor progression. After 8 weeks, all mice were sacrificed.

hLCSCs [8] = assay: tumor sphere formation; format: cell-based, human
LCSCs = assay: xenograft tumor-seeding of vacuolin-1 pretreated LCSCs; format: in vivo, nude mice; conditions: for tumor incidence / tumor volume: pretreated 10 μM 48 hours, after 4 weeks
Method: Nude mice were divided into 4 control groups and 4 treatment groups, each group having 6 nude mice. With reference to FIG. 2A, LCSCs were pretreated with DMSO or 10 μM vacuolin-1 for 48 hours before injecting to nude mice via subcutaneous injection. After 4 weeks, the tumor incidence in mice was measured to determine whether the pretreatment of vacuolin-1 can inhibit the invasion cancer cells in mice.

[9] = test system: Fluc-mCherry-expressing 4TO7 cells; assay: metastasis of fat pad injected Fluc-mCherry 4TO7 cells; format: in vivo; conditions: fat pad injection; 2.5 mg/kg IP; 4 weeks; normal female mice
Method: The anti-metastasis effects of vacuolin-1 in another metastasis model have also been evaluated. With reference to FIG. 7A, Fluc-mCherry-expressing 4TO7 cells were injected into the fat pad of normal female mice followed by IP injections of vacuolin-1 (2.5 mg/kg) 24 hour later. The mice were imaged by the Cri Maestro 2 weekly to assess the tumor progression. Mice were sacrificed after 4 weeks, and the number of tumor colonies in lung was counted.

cancer cell = assay: colony formation from single cancer cell; format: cell-based; conditions: 2 μM, 5 μM and 10 μM
Method: as §2

[10] = 1*10^4 LCSCs injected subcutaneously
[11] = 1*10^5 LCSCs injected subcutaneously
[12] = 1*10^6 LCSCs injected subcutaneously

In the case of `Ic1cccc(/C=N/Nc2nc(N3CCOCC3)nc(N(c3ccccc3)c3ccccc3)n2)c1` [vacuolin-1], the FA disassembly (focal adhesion (FA)) is reported as “markedly inhibited”, the cell invasion (hLCSCs [1]) is reported as “significantly inhibited” and the behavior abnormality ([2]; 2 weeks) is reported as “no signs of behavior abnormality”. For the same compound, the mouse weight gain ([2]; 2 weeks) was “no effects”, the “histology of tissues or organs” value ([2]; after 2 weeks) was “normal” and the acute toxicity ([2]; mice) was “no acute toxicity”. The “anti-metastatic effects on 4TO7 cells (tumor nodules in lungs, lung histology)” value [3] was “striking anti-metastatic effects”, the “metastasis of 4TO7 cells” value [4] was “markedly inhibited” and the sub-chronic toxicity (sub-chronic toxicity) was “no sub-chronic toxicity”. For the same compound, the cytotoxicity (cancer cells) was “no cytotoxicity”, the cell migration (CNE-1 cells) was “significantly inhibited” and the cell migration (A549 cells) was “significantly inhibited”. The cell migration (HeLa cells) was “significantly inhibited”, the cell migration [5] was “significantly inhibited” and the “metastasis of LCSCs (tumor nodules in lung, lung histology)” value (tfLC3B-expressing LCSCs) was “significantly inhibited”. The “phosphorylation and dephosphorylation dynamics of FAK” value [6] was “abolished”, the “metastasis of CA1a cells” value [7] was “significantly inhibited” and the tumor sphere formation (hLCSCs [8]) was “significantly inhibited”. The tumor incidence (LCSCs; 1*10^3 LCSCs injected subcutaneously) was 0/6, the tumor incidence (LCSCs; [10]) was 2/6 and the tumor volume (LCSCs; [10]) was “(1069 mm^3)”. The tumor incidence (LCSCs; [11]) was 2/6, the tumor volume (LCSCs; [11]) was “(1184 mm^3)” and the tumor incidence (LCSCs; [12]) was 5/6. The tumor volume (LCSCs; [12]) was “(1521 mm^3)”, the “tumor-seeding ability of LCSC cells” value (LCSCs; vacuolin-1 pretreatment, nude mice) was “markedly inhibited” and the “metastasis of 4TO7 cells” value [9] was “markedly inhibited”. For the same compound, the “size and number of colonies generated from single cancer cell” value (cancer cell) was “dramatically reduced”.

Source: patent US10894051B2, “Method of treating metastatic cancer in a subject” (City University of Hong Kong, priority 2017, dated 2021)
